The source of these data is PMC5485063 (Chemmedchem, 2017).

Converted amounts (≈) assume the structure as drawn.

The nature of series [1]: logD by reversed‐phase HPLC. The note with it: pH 7.5.
The test system of the next series is rat hepatocytes. Description: High‐throughput metabolic stability assay, freshly harvested rat hepatocytes. The following applies: predicted hepatic metabolic (blood) clearance.
The nature of series [2]: High‐throughput metabolic stability assay, pooled human liver microsomes. The following applies: predicted hepatic metabolic (blood) clearance.
A further series has as its system MCF7 cells. Briefly: In vitro proliferation assay, human MCF7 cells stimulated with 17β‐estradiol. The format is cell-based. The note with it: MCF7, read-out: IC50 MCF7 E2 stim.
The subject of a further series is Caco2. Description: Bidirectional Caco2 permeability assay, 24‐well format. The following applies: for permeability in either direction (P app A→B and P app B→A): Caco2, incubation period 90 min, possibly precipitation and sticking to plastics; for P app A→B: Caco2, apical to basolateral. A general note: Caco-2 monolayers are a common model of the intestinal barrier.

For series [3] the following is noted: estimated; cited from earlier work.
For the next series, the target named is CDK2 (Homo sapiens, UniProt P24941). Description: Biochemical in vitro kinase assay CDK2.
The next series addresses CDK9 (Homo sapiens, UniProt P50750). Briefly: Biochemical in vitro kinase assay CDK9.
Series [4] is described as follows: Bidirectional Caco2 permeability assay, 24‐well format. The following applies: human.
Another series has as its system A2780 cells. Briefly: In vitro proliferation assay, cultivated A2780 cells. The series is classed as cell-based. The following applies: Homo sapiens, A2780, read-out: IC50 A2780.
A further series concerns MOLM‐13 cells. Briefly: In vitro proliferation assay, MOLM‐13 cells. The format is cell-based. The note with it: Homo sapiens, MOLM-13, read-out: IC50 MOLM‐13.
Series [5] deals with T1, wild‐type estrogen receptor 1 (ESR1) (Homo sapiens, UniProt P03372).
T1 sequence (P03372 1-595): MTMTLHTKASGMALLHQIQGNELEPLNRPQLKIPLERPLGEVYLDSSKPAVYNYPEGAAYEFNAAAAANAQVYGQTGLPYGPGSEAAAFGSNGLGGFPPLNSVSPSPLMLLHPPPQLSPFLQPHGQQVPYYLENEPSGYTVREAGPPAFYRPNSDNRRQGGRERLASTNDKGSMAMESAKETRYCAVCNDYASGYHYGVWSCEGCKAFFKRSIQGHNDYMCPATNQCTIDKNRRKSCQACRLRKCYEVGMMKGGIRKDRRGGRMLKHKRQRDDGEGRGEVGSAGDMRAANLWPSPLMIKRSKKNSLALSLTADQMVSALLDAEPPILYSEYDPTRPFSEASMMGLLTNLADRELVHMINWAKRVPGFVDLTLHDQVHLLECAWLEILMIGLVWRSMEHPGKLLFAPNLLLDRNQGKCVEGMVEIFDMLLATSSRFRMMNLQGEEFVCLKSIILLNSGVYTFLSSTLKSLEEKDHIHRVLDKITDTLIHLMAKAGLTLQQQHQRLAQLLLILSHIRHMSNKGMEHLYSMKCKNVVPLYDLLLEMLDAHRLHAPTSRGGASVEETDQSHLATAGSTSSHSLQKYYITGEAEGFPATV
Description: Wild‐type estrogen receptor 1. The format is cell-based.

In the next series the target is CDK6/CycD3 (Homo sapiens, UniProt Q00534). Description: Biochemical assay at ProQinase, CDK6/CycD3.
The next series has as its target CDK4/CycD3 (Homo sapiens, UniProt P11802). Briefly: Biochemical assay at ProQinase, CDK4/CycD3.

CDK4/CycD3, sequence (P11802 whole entry): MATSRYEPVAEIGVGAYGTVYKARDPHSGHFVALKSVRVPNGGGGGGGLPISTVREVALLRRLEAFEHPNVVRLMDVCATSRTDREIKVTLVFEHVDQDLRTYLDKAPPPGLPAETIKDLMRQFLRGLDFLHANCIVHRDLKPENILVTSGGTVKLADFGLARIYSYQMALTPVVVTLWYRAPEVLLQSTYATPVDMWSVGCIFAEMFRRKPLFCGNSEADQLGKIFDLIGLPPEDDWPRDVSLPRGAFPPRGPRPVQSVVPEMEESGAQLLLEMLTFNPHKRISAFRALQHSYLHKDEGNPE
CDK4/CycD3, sequence (P30281 whole entry partner): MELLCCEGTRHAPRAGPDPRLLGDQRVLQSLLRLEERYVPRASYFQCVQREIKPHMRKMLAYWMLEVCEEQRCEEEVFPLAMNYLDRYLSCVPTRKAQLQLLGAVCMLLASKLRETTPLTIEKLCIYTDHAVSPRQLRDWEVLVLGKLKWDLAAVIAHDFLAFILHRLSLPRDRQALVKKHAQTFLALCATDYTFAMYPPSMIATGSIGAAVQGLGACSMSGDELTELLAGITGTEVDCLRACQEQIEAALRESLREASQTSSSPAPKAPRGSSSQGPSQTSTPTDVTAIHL
CDK6/CycD3, sequence (Q00534 whole entry): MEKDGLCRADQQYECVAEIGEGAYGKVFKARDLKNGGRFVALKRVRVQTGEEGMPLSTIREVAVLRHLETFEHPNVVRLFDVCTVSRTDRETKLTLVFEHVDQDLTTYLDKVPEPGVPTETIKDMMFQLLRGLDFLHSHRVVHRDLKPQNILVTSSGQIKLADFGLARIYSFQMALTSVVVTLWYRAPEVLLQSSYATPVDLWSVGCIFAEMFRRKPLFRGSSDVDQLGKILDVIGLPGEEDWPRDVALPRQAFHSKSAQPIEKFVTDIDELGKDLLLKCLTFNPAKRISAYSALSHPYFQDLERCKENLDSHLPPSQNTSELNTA
CDK6/CycD3, sequence (P30281 whole entry partner): as the sequence (P30281 whole entry partner) above
CDK9, sequence (P50750 whole entry): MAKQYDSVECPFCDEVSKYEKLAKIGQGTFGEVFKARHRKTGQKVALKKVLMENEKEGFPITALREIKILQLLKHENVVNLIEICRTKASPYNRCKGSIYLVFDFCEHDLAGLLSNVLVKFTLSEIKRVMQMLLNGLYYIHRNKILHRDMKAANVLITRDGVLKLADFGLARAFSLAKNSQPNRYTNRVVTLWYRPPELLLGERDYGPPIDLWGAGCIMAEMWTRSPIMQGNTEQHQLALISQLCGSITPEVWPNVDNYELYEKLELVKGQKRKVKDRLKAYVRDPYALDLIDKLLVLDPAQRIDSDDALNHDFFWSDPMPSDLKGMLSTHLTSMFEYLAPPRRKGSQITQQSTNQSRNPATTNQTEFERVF
CDK9, sequence (O60563 whole entry partner): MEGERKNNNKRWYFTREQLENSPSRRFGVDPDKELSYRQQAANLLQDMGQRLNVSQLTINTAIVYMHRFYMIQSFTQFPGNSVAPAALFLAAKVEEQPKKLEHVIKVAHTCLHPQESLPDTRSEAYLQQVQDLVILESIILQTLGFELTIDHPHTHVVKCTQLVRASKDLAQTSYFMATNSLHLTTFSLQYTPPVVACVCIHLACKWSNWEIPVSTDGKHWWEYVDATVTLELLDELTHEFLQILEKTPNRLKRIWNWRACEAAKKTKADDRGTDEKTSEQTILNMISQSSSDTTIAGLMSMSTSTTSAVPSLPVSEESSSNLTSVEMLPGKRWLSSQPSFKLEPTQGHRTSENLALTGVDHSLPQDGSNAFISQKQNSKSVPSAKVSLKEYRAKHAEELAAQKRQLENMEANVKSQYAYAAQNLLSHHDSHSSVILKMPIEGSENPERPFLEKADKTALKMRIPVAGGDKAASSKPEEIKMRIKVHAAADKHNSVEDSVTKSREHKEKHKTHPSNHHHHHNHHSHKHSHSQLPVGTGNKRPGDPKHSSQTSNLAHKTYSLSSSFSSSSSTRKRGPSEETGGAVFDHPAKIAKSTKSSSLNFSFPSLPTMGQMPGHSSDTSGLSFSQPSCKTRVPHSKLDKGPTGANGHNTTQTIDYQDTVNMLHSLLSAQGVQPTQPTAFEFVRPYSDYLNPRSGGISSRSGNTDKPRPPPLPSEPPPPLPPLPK

Broadly, the chromatographic logD is lipophilicity estimated from chromatographic retention. A high value points to a more lipophilic compound. Broadly, the IC50 is the concentration that gives 50% inhibition. As a reminder, the aqueous solubility is the concentration that dissolves in the medium under given conditions. Compound `C[C@]12CC[C@@H]3c4ccc(O)cc4C[C@@H](CCCCCCCCC[S+]([O-])CCCC(F)(F)C(F)(F)F)[C@H]3[C@@H]1CC[C@@H]2O` (stereo partly drawn) [fulvestrant, reference compound] had a chromatographic logD in [1] of 4.2. Also, the “CLb rHep” value with rat hepatocytes is 58.3 mL/min/kg. Also, in [2], the “CLb hLMs” value was 20 mL/min/kg. Besides, the IC50 with MCF7 cells came to 9.2 nM. The “permeability in either direction (P app A→B and P app B→A)” value with Caco2 is listed as “no permeability in either direction”. In addition, in [3], the aqueous solubility is around 0.01 µg/mL (≈ 0.0165 µM).
A word on the efflux ratio: it is a quotient of directional permeabilities that is used to spot active efflux. On to `N=S1(=O)CCC(NC(=O)c2n[nH]cc2NC(=O)c2c(Cl)cccc2Cl)CC1` (stereo not drawn) [compound 15, 4‐(2,6‐Dichlorobenzamido)‐N‐(1‐imino‐1‐oxo‐1λ^6‐thian‐4‐yl)‐1H‐pyrazole‐3‐carboxamide], for which the chromatographic logD in series [1] was determined as 1.6. In addition, the “CLb rHep” value in the series on rat hepatocytes is 1 mL/min/kg. Also, in series [2], the “CLb hLMs” value was 1 mL/min/kg. In addition, the IC50 on CDK2 was determined as 522 nM; at CDK9 it was 124 nM; in the series with A2780 cells it was 351 nM. The “P app A→B” value in the series with Caco2 was 0.14 ×10⁻⁶ cm/s. Further, the efflux ratio at 90 min in [4] (Caco-2) amounted to 37.
For the compound `CCCc1nc(C)c2c(=O)[nH]c(-c3cc(S(=O)(=O)N4CCS(=N)(=O)CC4)ccc3OCC)nn12` [compound 29, 4‐(4‐Ethoxy‐3‐{5‐methyl‐4‐oxo‐7‐propyl‐3 H,4H‐imidazo[4,3‐f][1,2,4]triazin‐2‐yl}benzenesulfonyl)‐1‐imino‐1λ^6‐thiomorpholin‐1‐one], the chromatographic logD in series [1] was 2. Further, the “CLb rHep” value with rat hepatocytes was 35 mL/min/kg. For the same compound, in series [2], the “CLb hLMs” value was 7.17 mL/min/kg. In addition, the ER in the series on Caco2 (Caco2 efflux ratio, P app B→A/P app A→B) was 288. Besides, in [4] (Caco-2, ER, Caco2 efflux ratio, P app B→A/P app A→B), the efflux ratio at 90 min was above 200.
Regarding `CC(=O)c1c(C)c2cnc(Nc3ccc(N4CCNCC4)cn3)nc2n(C2CCCC2)c1=O` [palbociclib, reference compound], the chromatographic logD in series [1] came to 1.9. Also, the IC50 in the series on MOLM‐13 cells is 41 nM. Moreover, the “CLb rHep” value in the series with rat hepatocytes is 21.7 mL/min/kg. For the same compound, in series [2], the “CLb hLMs” value is 7.5 mL/min/kg. Moreover, in the series on Caco2, the “P app A→B” value turned out to be 7 ×10⁻⁶ cm/s.
Taken in the same sequence, the figures for `CN(C)C(=O)c1cc2cnc(Nc3ccc(N4CCNCC4)cn3)nc2n1C1CCCC1` [ribociclib, reference compound] were 1.7, 89 nM, 38.3 mL/min/kg, 8.67 mL/min/kg and 13.5 ×10⁻⁶ cm/s.
For the compound `O=C(NC1CCNCC1)c1n[nH]cc1NC(=O)c1c(Cl)cccc1Cl` [AT7519, reference compound], the chromatographic logD in series [1] was 1.3. For the same compound, the “CLb rHep” value with rat hepatocytes was 28.3 mL/min/kg. For the same compound, the “CLb hLMs” value in [2] was 4 mL/min/kg. Besides, the “P app A→B” value in the series with Caco2 was 0.1 ×10⁻⁶ cm/s. The IC50 in the series with A2780 cells amounted to 131 nM.
For the compound `C[C@]12CC[C@@H]3c4ccc(O)cc4C[C@@H](CCCCCCCCC[S@](=N)(=O)CCCC(F)(F)C(F)(F)F)[C@H]3[C@@H]1CC[C@@H]2O` [compound 33, 7α‐{9‐[(S)‐(4,4,5,5,5‐Pentafluoropentyl)sulfonimidoyl]nonyl}estra‐1,3,5(10)‐triene‐3,17β‐diol], the chromatographic logD in [1] is 3.8. Further, the results for the IC50 (in [5]; in the series on MCF7 cells) were 1.8 nM and 7.1 nM, respectively. In addition, the “CLb rHep” value in the series on rat hepatocytes is 58.3 mL/min/kg. In [2], the “CLb hLMs” value was 18.3 mL/min/kg. In addition, the “permeability in either direction (P app A→B and P app B→A)” value in the series on Caco2 is “no permeability in either direction”.
With `CC(=O)c1c(C)c2cnc(Nc3ccc(N4CCS(=N)(=O)CC4)cn3)nc2n(C2CCCC2)c1=O` [compound 23, 4‐[6‐({6‐Acetyl‐8‐cyclopentyl‐5‐methyl‐7‐oxo‐7 H,8H‐pyrido[2,3‐d]pyrimidin‐2‐yl}amino)pyridin‐3‐yl]‐1‐imino‐1λ^6‐thiomorpholin‐1‐one], the chromatographic logD in [1] stood at 2. The IC50 with MOLM‐13 cells turned out to be 128 nM; on CDK6/CycD3, 240 nM; against CDK4/CycD3, 101 nM. Besides, the “CLb rHep” value in the series with rat hepatocytes is 18.3 mL/min/kg. The “CLb hLMs” value in series [2] is 4 mL/min/kg. For the same compound, the “P app A→B” value in the series with Caco2 turned out to be 2.5 ×10⁻⁶ cm/s. Also, the efflux ratio at 90 min in [4] (Caco-2) worked out at 9.1.
In series [1], `CN(C)C(=O)c1cc2cnc(Nc3ccc(N4CCS(=N)(=O)CC4)cn3)nc2n1C1CCCC1` [compound 26, 7‐Cyclopentyl‐2‐{[5‐(1‐imino‐1‐oxo‐1λ^6‐thiomorpholin‐4‐yl)pyridin‐2‐yl]amino}‐N,N ‐dimethyl‐7H‐pyrrolo[2,3‐d]pyrimidine‐6‐carboxamide] had a chromatographic logD of 1.8. Also, the IC50 is 1150 nM with MOLM‐13 cells, above 1000 nM against CDK6/CycD3 and 216 nM against CDK4/CycD3. For the same compound, the “CLb rHep” value in the series on rat hepatocytes was 18.3 mL/min/kg. Further, in series [2], the “CLb hLMs” value was 3.5 mL/min/kg. Besides, the “P app A→B” value in the series with Caco2 came out at 2.2 ×10⁻⁶ cm/s. The efflux ratio at 90 min in series [4] (Caco-2) was found to be 11.
For `CCCc1nc(C)c2c(=O)[nH]c(-c3cc(S(=O)(=O)N4CCN(CC)CC4)ccc3OCC)nn12` [vardenafil, reference compound], in [1], the chromatographic logD worked out at 2.6. Also, in the series on rat hepatocytes, the “CLb rHep” value was 50 mL/min/kg. Moreover, in series [2], the “CLb hLMs” value was 18.3 mL/min/kg. Moreover, the “P app A→B” value in the series with Caco2 is 20.6 ×10⁻⁶ cm/s.
